Results: patent publication US5541208A, “Indole diterpene alkaloid compounds” (priority 1994, dated 1996)
Read-outs that look alike come from different tables or passages of the source.

Experiments:
[1] = target: T1, bovine aortic sarcolemma membrane vesicles ([^125 I]ChTX receptor) (Bos taurus, UniProt Q28204); assay: [^125 I]ChTX binding assay with aortic sarcolemma membrane vesicles; conditions: for effect on [^125 I]ChTX binding: 1 nM to 100 μM
T1 construct: bovine aortic s sarcolemma membrane vesicles; from tissue; host or cells: bovine aorta, sarcolemma membrane vesicles
T1 sequence (Q28204 whole entry): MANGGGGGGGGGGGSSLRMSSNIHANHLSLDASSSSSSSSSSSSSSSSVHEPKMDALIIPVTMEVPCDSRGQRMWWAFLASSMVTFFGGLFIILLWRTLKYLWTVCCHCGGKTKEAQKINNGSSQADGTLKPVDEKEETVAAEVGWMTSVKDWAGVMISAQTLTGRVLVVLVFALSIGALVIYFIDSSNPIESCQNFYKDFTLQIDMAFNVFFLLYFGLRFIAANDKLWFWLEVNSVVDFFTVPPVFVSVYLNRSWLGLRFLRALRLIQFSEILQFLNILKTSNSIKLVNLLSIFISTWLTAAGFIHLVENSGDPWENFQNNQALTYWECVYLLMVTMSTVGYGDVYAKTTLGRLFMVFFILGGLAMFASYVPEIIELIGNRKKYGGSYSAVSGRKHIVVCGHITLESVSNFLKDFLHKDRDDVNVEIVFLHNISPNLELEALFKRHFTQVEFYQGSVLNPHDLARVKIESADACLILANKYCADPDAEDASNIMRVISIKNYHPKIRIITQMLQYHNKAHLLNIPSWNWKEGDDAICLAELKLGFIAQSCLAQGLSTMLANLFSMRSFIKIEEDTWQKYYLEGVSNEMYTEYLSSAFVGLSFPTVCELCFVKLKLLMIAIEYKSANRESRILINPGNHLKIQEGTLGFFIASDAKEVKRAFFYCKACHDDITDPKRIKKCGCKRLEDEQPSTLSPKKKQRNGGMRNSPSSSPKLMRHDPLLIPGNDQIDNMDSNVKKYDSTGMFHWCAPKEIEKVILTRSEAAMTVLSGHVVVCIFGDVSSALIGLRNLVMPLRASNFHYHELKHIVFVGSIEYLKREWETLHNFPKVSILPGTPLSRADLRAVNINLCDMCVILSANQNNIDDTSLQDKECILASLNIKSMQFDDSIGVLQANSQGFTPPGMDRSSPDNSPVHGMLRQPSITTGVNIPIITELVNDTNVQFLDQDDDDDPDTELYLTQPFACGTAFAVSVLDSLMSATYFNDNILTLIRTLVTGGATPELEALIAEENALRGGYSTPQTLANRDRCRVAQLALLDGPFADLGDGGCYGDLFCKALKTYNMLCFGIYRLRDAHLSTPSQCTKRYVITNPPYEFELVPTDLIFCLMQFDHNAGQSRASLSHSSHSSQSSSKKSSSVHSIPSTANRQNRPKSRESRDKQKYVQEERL
T1 sequence (Q28067 whole entry partner): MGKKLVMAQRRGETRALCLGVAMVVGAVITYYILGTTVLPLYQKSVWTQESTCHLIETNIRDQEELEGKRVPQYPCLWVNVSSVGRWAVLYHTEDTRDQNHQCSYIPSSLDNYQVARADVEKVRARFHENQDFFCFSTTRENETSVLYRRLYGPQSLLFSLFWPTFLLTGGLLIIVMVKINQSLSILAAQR
Experimental: The interaction of [^125 I]ChTX with bovine aortic s sarcolemma membrane vesicles was determined under conditions as described (Vazquez et al., 1989, J. Biol. Chem. 264, 20902-20909). Briefly, sarcolemma membrane vesicles were incubated in 12×75 polystyrene tubes with ca. 25 pM [^125 I]ChTX (2200 Ci/mmol), in the absence or presence of test compound, in a media consisting of 20 mM NaCl, 20 mM Tris-HCl pH 7.4, 0.1% bovine serum albumin, 0.1% digitonin. Nonspecific binding was determined in the presence of 10 nM ChTX. Incubations were carried out at room temperature until ligand binding equilibrium is achieved at ca. 90 min. At the end of the incubation period, samples were diluted with 4 mL ice-cold 100 mM NaCl, 20 mM Hepes-Tris pH 7.4 and filtered through GF/C glass fiber filters that have been presoaked in 0.5% polyethylenimine. Filters were rinsed twice with 4 mL ice-cold quench solution. Radioactivity associated with filters was determined in a gamma counter. Specific binding data in the presence of each compound (difference between total binding and nonspecific binding) was assessed relative to an untreated control.

[2] = target: T2, maxi-K channels from bovine aortic smooth muscle (Bos taurus, UniProt Q28204); assay: Patch clamp recording of maxi-K channel currents in excised inside-out membrane patches; assay type: biochemical; conditions: for IC50: table of Example 4, read-out: 50% CHANNEL BLOCK; for block of maxi-K channels relative to Compound C: compared with Compound C; for inhibition at 0.01 µM: pH 7.2
T2 construct: membrane patches excised from cultured bovine aortic smooth muscle cells; endogenous in cells; host or cells: cultured bovine aortic smooth muscle cells
T2 sequence (Q28204 whole entry): as the sequence (Q28204 whole entry) above
Excerpt: Patch clamp recordings of currents flowing through large-conductance calcium-activated potassium (maxi-K) channels were made from membrane patches excised from cultured bovine aortic smooth muscle cells using conventional techniques (Hamill et al., 1981, Pflugers Archiv. 391, 85-100) at room temperature. Glass capillary tubing (Gamer #7052) was pulled in two stages to yield micropipettes with tip diameters of approximately 1-2 microns. Pipettes were typically filled with solutions containing (mM): 150 KCl, 10 Hepes (4-(2-hydroxyethyl)-1-piperazine ethanesulfonic acid), 1 Mg, 0.01 Ca, and adjusted to pH 7.20 with 3.7 mM KOH. After forming a high resistance (>10^9 ohms) seal between the sarcolemmal membrane and the pipette, the pipette was withdrawn from the cell, forming an excised inside-out membrane patch. The patch was excised into a bath solution containing (mM): 150 KCl, 10 Hepes, 5 EGTA (ethylene glycol bis(13-aminoethyl ether)-N,N,N',N'-tetraacetic acid), sufficient Ca to yield a free Ca concentration of 1-5 μM, and the pH was adjusted to 7.2 with 10.5 KOH. For example, 4.568 mM Ca was added to give a free concentration of 2 μM at 22 ° C. An AXOPATCH 1C amplifier (Axon Instruments, Foster City, Calif.) with a CV-4 headstage was used to control the voltage and to measure the currents flowing across the membrane patch. The input to the headstage was connected to the pipette solution with a Ag/AgCl wire, and the amplifier ground was connected to the bath solution with a Ag/AgCl wire covered with a tube filled with agar dissolved in 0.2M KCl. Maxi-K channels were identified by their large single channel conductance (~250 pS) and sensitivity of channel open probability to membrane potential and intracellular calcium concentration.
Data were stored on a RACAL STORE 4DS FM tape recorder (Racal Recorders, Vienna, Va.) or on digital video tape using a video casette recorder after digitizing the signal with VR-10 (Instrutech Corp., Belmont N.Y.) PCM video encoder. The signal was also recorded on chart paper with a GOULD 2400S chart recorder (Gould Inc., Cleveland Ohio). For quantitative analysis, the data was played into a DEC11-73 (Digital Equipment Corp., Maynard, Mass.) after digitization with a DT2782-8D1A analogue to digital converter (Data Translation Inc., Marlboro, Mass.), or played into a Mac IIx or Quadra 700 computer (Apple Computers) after digitization with an ITC-16 interface (Instrutech Corp., Belmont, N.Y.).

CC(C)=CCc1cccc2[nH]c3c(c12)CC1CCC2(O)C45OC4C4OC(C=C(C)C)OC(C)(C)C4OC5=CCC2(C)C31C (stereo not shown) [Compound C]
inhibition at 10 µM ([1]; read-out: inhibition of [^125 I]ChTX binding): 29%
block of maxi-K channels / channel activity ([2]; 10 nM): rapid and complete block
reversal of block on washout ([2]; 10 nM, brief (~10 min) washout): not reversed
IC50 [2]: < 10 nM

CC(C)(O)C1CC(O)C2(C(=O)O)C(CCC3(C)C2CCC2Cc4c([nH]c5ccccc45)C23C)O1 (stereo not shown) [Compound D, hydroxypaspalinic acid]
effect on [^125 I]ChTX binding [1]: did not have any effect on binding
block of channel activity ([2]; 1 μM): complete block was not observed
block of maxi-K channels relative to Compound C [2]: weaker blockers of maxi-K channels than Compound C
inhibition at 0.01 µM ([2]; 10 nM, read-out: reduction in channel open probability): < 50%
IC50 [2]: ~1000 nM

COC(=O)C12C(O)CC(C(C)(C)O)OC1CCC1(C)C2CCC2Cc3c([nH]c4ccccc34)C21C (stereo not shown) [Compound E, methyl hydroxypaspalinate]
effect on [^125 I]ChTX binding [1]: did not affect [^125 I]ChTX binding
effect on channel open probability ([2]; 1 μM): no significant effect on channel open probability
block of channel activity ([2]; 10 μM): incomplete block of channel activity
time over which block of channel activity slowly increased ([2]; 10 μM): 5 to 10 min
block of maxi-K channels relative to Compound C [2]: weaker blockers of maxi-K channels than Compound C
IC50 [2]: > 10000 nM

CC1(C)ON=C2C=C3C(CCC4(C)C3(O)CCC3Cc5c([nH]c6ccccc56)C34C)OC21 (stereo not shown) [Compound F, Paxizoline]
effect on amount of toxin bound to its receptor ([1]; 50 nM to 2 μM): small increase in the amount of toxin bound to its receptor
effect on toxin binding ([1]; concentrations above 5 μM): concentration-dependent inhibition of binding
inhibition at 0.01 µM ([2]; 10 nM, read-out: decrease in channel activity): ~50%
IC50 [2]: ~10 nM
